Test results as given in the NIST ThermoML archive (doi:10.1016/j.jct.2015.12.020).
Values joined by “and” are separate entries in the source; they are usually repeats but may differ in a detail not shown here. Equal entries are not always repeated. Numbers after ± are expanded uncertainties.

Assays:
[1] = Crystal, Calculated from knudsen effusion weight loss
[2] = molar enthalpy of vaporization or sublimation; conditions: 298.15 K; Crystal; Static calorimetry

molar enthalpy [2] [kcal/mol] | SMILES | vapor or sublimation pressure ([1]; 377.16 K) | vapor or sublimation pressure ([1]; 379.12 K) | vapor or sublimation pressure ([1]; 381.1 K) | vapor or sublimation pressure ([1]; 383.16 K) | vapor or sublimation pressure ([1]; 385.1 K) | vapor or sublimation pressure ([1]; 387.09 K) | vapor or sublimation pressure ([1]; 389.15 K) | vapor or sublimation pressure ([1]; 391.1 K) | vapor or sublimation pressure ([1]; 393.1 K) | vapor or sublimation pressure ([1]; 395.15 K) | vapor or sublimation pressure ([1]; 397.13 K) | vapor or sublimation pressure ([1]; 399.12 K)
28.2 ± 0.502 | O=c1cn[nH]c(=O)[nH]1 [6-azauracil] | 0.00012 ± 0.0001 kPa and 0.000109 ± 0.0001 kPa | 0.000138 ± 0.0001 kPa and 0.000142 ± 0.0001 kPa and 0.000131 ± 0.0001 kPa | 0.000167 ± 0.0001 kPa and 0.000164 ± 0.0001 kPa | 0.000205 ± 0.0001 kPa and 0.000198 ± 0.0001 kPa and 0.000227 ± 0.0001 kPa | 0.000252 ± 0.0001 kPa and 0.000229 ± 0.0001 kPa and 0.000269 ± 0.0001 kPa | 0.000301 ± 0.0001 kPa and 0.000282 ± 0.0001 kPa | 0.00037 ± 0.0001 kPa and 0.000355 ± 0.0001 kPa and 0.000413 ± 0.0001 kPa | 0.000452 ± 0.0001 kPa and 0.000422 ± 0.0001 kPa and 0.000477 ± 0.0001 kPa | 0.000538 ± 0.0001 kPa and 0.000515 ± 0.0001 kPa and 0.000575 ± 0.0001 kPa | 0.00061 ± 0.0001 kPa and 0.000596 ± 0.0001 kPa and 0.000684 ± 0.0001 kPa | 0.000756 ± 0.0001 kPa and 0.000711 ± 0.0001 kPa and 0.000812 ± 0.0001 kPa | 0.000901 ± 0.00011 kPa and 0.000859 ± 0.00011 kPa and 0.000945 ± 0.00011 kPa
28.7 ± 0.669 | Cc1nnc(S)[nH]c1=O [6-aza-2-thiothymine] | – | – | – | – | – | – | – | – | – | – | – | –
26.1 ± 0.55 | Cc1n[nH]c(=O)[nH]c1=O [6-azathymine] | – | – | – | – | – | – | – | – | – | – | – | –
